# Legend:
# [1] = system: MCF7; test: In vitro cytotoxic activity against breast (MCF-7/ADR) cell line at a concentration of 10e-5 M; format: functional, Homo sapiens
# [2] = system: A498; test: In vitro cytotoxic activity against renal (A498) cell line; format: functional; settings: Homo sapiens
# [3] = system: SK-OV-3; test: In vitro cytotoxic activity against Ovarian (SK-OV3) cell line; format: functional; settings: Homo sapiens
# [4] = system: SK-OV-3; test: In vitro cytotoxic activity against Ovarian (SK-OV3) cell line at a concentration of 10e-5 M; format: functional, Homo sapiens
# [5] = system: SW-620; test: In vitro cytotoxic activity against colon (SW620) cell line; format: functional; settings: Homo sapiens
# [6] = system: NCI-H522; test: In vitro cytotoxic activity against lung (H522) cell line at a concentration of 10e-5 M
# [7] = system: DU-145; test: In vitro cytotoxic activity against prostate (DU145) cell line at a concentration of 10e-5 M; format: functional, Homo sapiens
# [8] = system: NCI-H522; test: In vitro cytotoxic activity against lung (H522) cell line; settings: Homo sapiens
# [9] = system: U-251; test: In vitro cytotoxic activity against CNS(U251) cell line at a concentration of 10e-5 M; format: functional, Homo sapiens
# [10] = system: A498; test: In vitro cytotoxic activity against renal (A498) cell line at a concentration of 10e-5 M; format: functional, Homo sapiens
# [11] = system: M14; test: In vitro cytotoxic activity against Melanoma (M14) cell line at a concentration of 10e-5 M; format: functional, Homo sapiens
# [12] = system: U-251; test: In vitro cytotoxic activity against CNS(U251) cell line; format: functional; settings: Homo sapiens
# [13] = system: SW-620; test: In vitro cytotoxic activity against colon (SW620) cell line at a concentration of 10e-5 M; format: functional, Homo sapiens
# [14] = system: DU-145; test: In vitro cytotoxic activity against prostate (DU145) cell line; format: functional; settings: Homo sapiens
# [15] = system: MCF7; test: In vitro cytotoxic activity against breast (MCF-7/ADR) cell line; format: functional; settings: Homo sapiens
# [16] = system: M14; test: In vitro cytotoxic activity against Melanoma (M14) cell line; format: functional; settings: Homo sapiens
# [17] = system: NCI-H522; test: In vitro cytotoxic activity against lung (H522) cell line at a concentration of 10e-5 M; format: functional, Homo sapiens
# [18] = system: Mus musculus; test: In vivo potential in Swiss Albino Mice using modified hollow fiber assay at the dose of 150 mg/kg by ip administration; format: functional; settings: route intraperitoneal
# [19] = system: Mus musculus; test: In vivo potential in Swiss Albino Mice using modified hollow fiber assay at the dose of 75 mg/kg as total score; format: functional
# [20] = system: Mus musculus; test: In vivo potential in Swiss Albino Mice using modified hollow fiber assay at the dose of 75 mg/kg by sc administration; format: functional; settings: route subcutaneous
# [21] = system: Mus musculus; test: In vivo potential in Swiss Albino Mice using modified hollow fiber assay at the dose of 75 mg/kg by ip administration; format: functional; settings: route intraperitoneal
# [22] = system: Mus musculus; test: In vivo potential in Swiss Albino Mice using modified hollow fiber assay at the dose of 150 mg/kg by sc administration; format: functional; settings: route subcutaneous
# [23] = system: Mus musculus; test: In vivo potential in Swiss Albino Mice using modified hollow fiber assay at the dose of 150 mg/kg as total score; format: functional
# [24] = system: Mus musculus; test: In vivo potential in Swiss Albino Mice using modified hollow fiber assay at the dose of 100 mg/kg as total score; format: functional
# [25] = system: NCI-H522; test: In vitro cytotoxicity against H522 (human adenocarcinoma) cell line at a concentration of 10e-5 M.
# [26] = system: Mus musculus; test: In vivo potential in Swiss Albino Mice using modified hollow fiber assay at the dose of 50 mg/kg by sc administration; format: functional; settings: route subcutaneous
# [27] = system: Mus musculus; test: In vivo potential in Swiss Albino Mice using modified hollow fiber assay at the dose of 50 mg/kg by ip administration; format: functional; settings: route intraperitoneal
# [28] = system: Mus musculus; test: In vivo potential in Swiss Albino Mice using modified hollow fiber assay at the dose of 100 mg/kg by ip administration; format: functional; settings: route intraperitoneal
# [29] = system: Mus musculus; test: In vivo potential in Swiss Albino Mice using modified hollow fiber assay at the dose of 100 mg/kg by sc administration; format: functional; settings: route subcutaneous
# [30] = system: Mus musculus; test: In vivo potential in Swiss Albino Mice using modified hollow fiber assay at the dose of 50 mg/kg as total score; format: functional
compound,measurement,setting,value
CC(C)(C)OC(=O)NCC(=O)O[C@@H]1CC2C(C)(C)C(=O)C=C[C@]2(C)C2CC[C@]3(C)C(=CC[C@H]3c3ccoc3)[C@@]21C (stereo partly drawn),Growth,[1],62%
same,GI50,[2],12 µM
same,GI50,[3],65 µM
same,Growth,[4],48%
same,GI50,[5],20 µM
same,Growth,[6],53%
same,Growth,[7],63%
same,GI50,[8],15 µM
same,Growth,[9],53%
same,Growth,[10],33%
same,Growth,[11],58%
same,GI50,[12],50 µM
same,Growth,[13],67%
same,GI50,[14],20 µM
same,GI50,[15],60 µM
same,GI50,[16],20 µM
CC1(C)C(=O)C=C[C@@]2(C)C1CC(=O)[C@@]1(C)C3=CC[C@@H](c4ccoc4)[C@]3(C)CCC12 (stereo partly drawn),Growth,[1],30%
same,GI50,[2],4 µM
same,GI50,[3],7.5 µM
same,Growth,[4],43%
same,GI50,[5],3 µM
same,Growth,[7],7%
same,GI50,[8],25 µM
same,Growth,[9],27%
same,Growth,[10],9%
same,Growth,[11],7%
same,GI50,[12],6 µM
same,Growth,[13],3%
same,Growth,[17],43%
same,GI50,[14],6 µM
same,GI50,[15],3 µM
same,GI50,[16],0.6 µM
CC(=O)O[C@@H]1CC2C(C)(C)C(=O)C=C[C@]2(C)C2CC[C@]3(C)C(=CC[C@H]3c3ccoc3)[C@@]21C (stereo partly drawn),Score,[18],24
same,Growth,[1],-18%
same,GI50,[2],2 µM
same,GI50,[3],5 µM
same,Growth,[4],30%
same,GI50,[5],7 µM
same,Score,[19],36
same,Growth,[6],29%
same,Score,[20],12
same,Score,[21],14
same,Growth,[7],-6%
same,GI50,[8],6 µM
same,Growth,[9],-4%
same,Growth,[10],23%
same,Growth,[11],-6%
same,GI50,[12],2.5 µM
same,Growth,[13],29%
same,Score,[22],24
same,GI50,[14],0.05 µM
same,Score,[23],48
same,GI50,[15],0.06 µM
same,GI50,[16],0.08 µM
CC(=O)O[C@@H]1CC2C(C)(C)/C(=N/OCCN3CCCC3)C=C[C@]2(C)C2CC[C@]3(C)C(=CC[C@H]3c3ccoc3)[C@@]21C (stereo partly drawn),Score,[24],46
same,Growth,[1],22%
same,GI50,[2],4 µM
same,GI50,[3],4 µM
same,Growth,[4],-35%
same,GI50,[5],3 µM
same,Growth,[25],-13.9%
same,Score,[26],8
same,Growth,[7],32%
same,GI50,[8],4 µM
same,Growth,[9],-24%
same,Growth,[10],-16%
same,Growth,[11],26%
same,GI50,[12],4 µM
same,Growth,[13],-51%
same,Score,[27],14
same,Score,[28],24
same,Score,[29],22
same,GI50,[14],6 µM
same,GI50,[15],3 µM
same,Score,[30],22
same,GI50,[16],5 µM
CC(=O)O[C@H]1C[C@@H](OC(C)=O)C(C)(C)C2C[C@@H](OC(C)=O)[C@@]3(C)C4=CC[C@@H](c5ccoc5)[C@]4(C)CCC3[C@]21C (stereo partly drawn),Score,[18],24
same,Growth,[1],38%
same,GI50,[2],15 µM
same,GI50,[3],9 µM
same,Growth,[4],42%
same,GI50,[5],3 µM
same,Growth,[25],8%
same,Score,[19],18
same,Score,[20],6
same,Score,[21],12
same,Growth,[7],-19%
same,GI50,[8],40 µM
same,Growth,[9],-24%
same,Growth,[10],-5%
same,Growth,[11],-22%
same,GI50,[12],30 µM
same,Growth,[13],-60%
same,Score,[22],24
same,GI50,[14],4 µM
same,Score,[23],48
same,GI50,[15],4 µM
same,GI50,[16],5 µM

# Source: ChEMBL document CHEMBL1136447, “Biological investigation and structure-activity relationship studies on azadirone from Azadirachta indica A. Juss” (2003)
